The experiment in a line: Mango-flavoured beverage evaluated by a panel of experienced tasters. As to conditions: 0.5 ppm dosed to mango drink (mango flavour 0.05% w/w, mango juice 0.18% w/w, sugar 8% w/w, citric acid 0.1% w/w). The procedure: A mango-flavoured beverage was prepared using a standard mango flavour (0.05% w/w), mango juice (0.18% w/w), sugar (8% w/w) and citric acid (0.1% w/w).

In the case of `CCCCC/C=C\C/C=C\CCCCCCCC(=O)N1CCCC1C(=O)OC` (centres unmarked) [Example 6, Methyl 1-((9Z,12Z)-octadeca-9,12-dienoyl)pyrrolidine-2-carboxylate], the “taste of the mango drink versus the reference drink (panel agreement)” value was “more fruity and peach-like than the reference drink”.

`CC/C=C\C/C=C\C/C=C\CCCCCCCC(=O)NC(C)C(=O)OC` (centres unmarked) [Example 7, Methyl 2-((9Z,12Z,15Z)-octadeca-9,12,15-trienamido)propanoate]: the “taste of the mango drink versus the reference drink (panel agreement)” value is “more fully, more fatty than the reference drink”.

Values taken from patent US10834943B2, “Organic compounds having taste-modifying properties” (GIVAUDAN SA, priority 2013, dated 2020).
